Laboratory results published in ChEMBL document CHEMBL1201862, “PubChem BioAssay data set” (2004).
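A five-concentration, 48-hour dose response in 96-well plates underlies each endpoint, interpolated linearly between surrounding concentrations. The concentration for 50% growth inhibition is given as GI50.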 Active and inactive are the calls of the source. Rule as the data show it: active = GI50 up to about 1.1 µM and inactive = higher.

Columns and labels:
Experiment in all cases: NCI anticancer screen, dose series, 48 h
CCRF-CEM = test system: CCRF-CEM
CAKI-1 = test system: CAKI-1
U-251 = test system: U-251
SF-295 = test system: SF-295
MDA-MB-231 = test system: MDA-MB-231
UACC-257 = test system: UACC-257
HL-60 = test system: HL-60
SF-539 = test system: SF-539
SK-OV-3 = test system: SK-OV-3
RPMI-8226 = test system: RPMI-8226
SK-MEL-5 = test system: SK-MEL-5
SNB-19 = test system: SNB-19
A498 = test system: A498
T47D = test system: T47D
SK-MEL-28 = test system: SK-MEL-28
UO-31 = test system: UO-31
HOP-62 = test system: HOP-62
NCI-H460 = test system: NCI-H460
RXF 393 = test system: RXF 393
M14 = test system: M14
COLO 205 = test system: COLO 205
OVCAR-4 = test system: OVCAR-4
MDA-N = test system: MDA-N
SW-620 = test system: SW-620
SF-268 = test system: SF-268
HT-29 = test system: HT-29
SN12C = test system: SN12C
PC-3 = test system: PC-3
OVCAR-8 = test system: OVCAR-8
KM12 = test system: KM12
SNB-75 = test system: SNB-75
UACC-62 = test system: UACC-62
LOX IMVI = test system: LOX IMVI
Hs-578T = test system: Hs-578T
MDA-MB-435 = test system: MDA-MB-435
MOLT-4 = test system: MOLT-4
DU-145 = test system: DU-145
OVCAR-3 = test system: OVCAR-3
MCF7 = test system: MCF7
TK-10 = test system: TK-10
786-0 = test system: 786-0
BT-549 = test system: BT-549
Malme-3M = test system: Malme-3M
K562 = test system: K562
NCI-H23 = test system: NCI-H23
A549 = test system: A549
HCT-15 = test system: HCT-15
IGROV-1 = test system: IGROV-1
SK-MEL-2 = test system: SK-MEL-2
NCI-H226 = test system: NCI-H226
SR = test system: SR
HOP-92 = test system: HOP-92
NCI/ADR-RES = test system: NCI/ADR-RES
HCT-116 = test system: HCT-116
NCI-H522 = test system: NCI-H522
OVCAR-5 = test system: OVCAR-5
ACHN = test system: ACHN

N#C/C(C(=O)CCl)=C1\Nc2ccccc2O1
GI50 (CCRF-CEM): 3.29 µM (inactive)
GI50 (CAKI-1): 3.65 µM (inactive)
GI50 (U-251): 5.36 µM (inactive)
GI50 (SF-295): 2.62 µM (inactive)
GI50 (MDA-MB-231): 2.89 µM (inactive)
GI50 (UACC-257): 3.07 µM (inactive)
GI50 (HL-60): 2.43 µM (inactive)
GI50 (SF-539): 2.79 µM (inactive)
GI50 (SK-OV-3): 12.1 µM (inactive)
GI50 (RPMI-8226): 2.92 µM (inactive)
GI50 (SK-MEL-5): 1.72 µM (inactive)
GI50 (SNB-19): 7.98 µM (inactive)
GI50 (A498): 1.95 µM (inactive)
GI50 (T47D): 15.6 µM (inactive)
GI50 (SK-MEL-28): 1.63 µM (inactive)
GI50 (UO-31): 3.62 µM (inactive)
GI50 (HOP-62): 4.89 µM (inactive)
GI50 (NCI-H460): 3.19 µM (inactive)
GI50 (RXF 393): 1.85 µM (inactive)
GI50 (M14): 3.9 µM (inactive)
GI50 (COLO 205): 1.94 µM (inactive)
GI50 (OVCAR-4): 1.49 µM (inactive)
GI50 (MDA-N): 3.71 µM (inactive)
GI50 (SW-620): 4.33 µM (inactive)
GI50 (SF-268): 2.67 µM (inactive)
GI50 (HT-29): 4.13 µM (inactive)
GI50 (SN12C): 2.9 µM (inactive)
GI50 (PC-3): 4.45 µM (inactive)
GI50 (OVCAR-8): 2.89 µM (inactive)
GI50 (KM12): 3.89 µM (inactive)
GI50 (SNB-75): 5.48 µM (inactive)
GI50 (UACC-62): 2.35 µM (inactive)
GI50 (LOX IMVI): 1.65 µM (inactive)
GI50 (Hs-578T): 6.01 µM (inactive)
GI50 (MDA-MB-435): 3.24 µM (inactive)
GI50 (MOLT-4): 3.35 µM (inactive)
GI50 (DU-145): 10.2 µM (inactive)
GI50 (OVCAR-3): 3.77 µM (inactive)
GI50 (MCF7): 2.56 µM (inactive)
GI50 (TK-10): 7.01 µM (inactive)
GI50 (786-0): 3.76 µM (inactive)
GI50 (BT-549): 2.17 µM (inactive)
GI50 (Malme-3M): 7.28 µM (inactive)
GI50 (K562): 3.24 µM (inactive)
GI50 (NCI-H23): 3.75 µM (inactive)
GI50 (A549): 6.1 µM (inactive)
GI50 (HCT-15): 2.01 µM
GI50 (IGROV-1): 1.83 µM (inactive)
GI50 (SK-MEL-2): 3.3 µM (inactive)
GI50 (NCI-H226): 2.3 µM (inactive)
GI50 (SR): 3.84 µM (inactive)
GI50 (HOP-92): 3.88 µM (inactive)
GI50 (NCI/ADR-RES): 2.2 µM (inactive)
GI50 (HCT-116): 3.43 µM (inactive)

CN(C)N1C(=O)CC2(CCN(CCCC(=O)c3ccc(F)cc3)CC2)C1=O
GI50 (CAKI-1): > 100 µM (inactive)
GI50 (U-251): > 100 µM (inactive)
GI50 (SF-295): > 100 µM (inactive)
GI50 (MDA-MB-231): > 100 µM (inactive)
GI50 (UACC-257): > 100 µM (inactive)
GI50 (HL-60): > 100 µM (inactive)
GI50 (SF-539): > 100 µM (inactive)
GI50 (SK-OV-3): > 100 µM (inactive)
GI50 (RPMI-8226): > 100 µM (inactive)
GI50 (NCI-H522): > 100 µM (inactive)
GI50 (SK-MEL-5): > 100 µM (inactive)
GI50 (SNB-19): > 100 µM (inactive)
GI50 (A498): > 100 µM (inactive)
GI50 (T47D): > 100 µM (inactive)
GI50 (SK-MEL-28): > 100 µM (inactive)
GI50 (UO-31): > 100 µM (inactive)
GI50 (HOP-62): > 100 µM (inactive)
GI50 (NCI-H460): > 100 µM (inactive)
GI50 (RXF 393): > 100 µM (inactive)
GI50 (M14): > 100 µM (inactive)
GI50 (COLO 205): > 100 µM (inactive)
GI50 (MDA-N): > 100 µM (inactive)
GI50 (SW-620): > 100 µM (inactive)
GI50 (SF-268): > 100 µM (inactive)
GI50 (HT-29): > 100 µM (inactive)
GI50 (OVCAR-5): > 100 µM (inactive)
GI50 (SN12C): > 100 µM (inactive)
GI50 (PC-3): > 100 µM (inactive)
GI50 (OVCAR-8): > 100 µM (inactive)
GI50 (KM12): > 100 µM (inactive)
GI50 (SNB-75): > 100 µM (inactive)
GI50 (UACC-62): > 100 µM (inactive)
GI50 (LOX IMVI): > 100 µM (inactive)
GI50 (Hs-578T): > 100 µM (inactive)
GI50 (MDA-MB-435): > 100 µM (inactive)
GI50 (MOLT-4): > 100 µM (inactive)
GI50 (DU-145): > 100 µM (inactive)
GI50 (OVCAR-3): > 100 µM (inactive)
GI50 (MCF7): > 100 µM (inactive)
GI50 (TK-10): > 100 µM (inactive)
GI50 (786-0): > 100 µM (inactive)
GI50 (BT-549): > 100 µM (inactive)
GI50 (Malme-3M): > 100 µM (inactive)
GI50 (K562): > 100 µM (inactive)
GI50 (NCI-H23): > 100 µM (inactive)
GI50 (A549): > 100 µM (inactive)
GI50 (HCT-15): > 100 µM
GI50 (IGROV-1): > 100 µM (inactive)
GI50 (SK-MEL-2): > 100 µM (inactive)
GI50 (NCI-H226): > 100 µM (inactive)
GI50 (SR): > 100 µM (inactive)
GI50 (ACHN): > 100 µM (inactive)
GI50 (NCI/ADR-RES): > 100 µM (inactive)
GI50 (HCT-116): > 100 µM (inactive)
